Assay results from patent US9249129B2, “Morpholino substituted urea derivatives as mTOR inhibitors” (CELLZOME LIMITED, priority 2010, dated 2016).

Assays:
kinases (kinome) [1] = molecular target: T1, kinases (kinome) (Homo sapiens, UniProt Q86YV5); experiment: kinobeads assay with mass spectrometry detection of kinases (kinase selectivity profile); format: binding; details: SgK223 (Other), IPI00739386
T1 construct: determined in kinobeads assays with mass spectrometry detection of kinases as described previously; endogenous in cells; host or cells: cell lysate
T1 sequence (Q86YV5 1-1406): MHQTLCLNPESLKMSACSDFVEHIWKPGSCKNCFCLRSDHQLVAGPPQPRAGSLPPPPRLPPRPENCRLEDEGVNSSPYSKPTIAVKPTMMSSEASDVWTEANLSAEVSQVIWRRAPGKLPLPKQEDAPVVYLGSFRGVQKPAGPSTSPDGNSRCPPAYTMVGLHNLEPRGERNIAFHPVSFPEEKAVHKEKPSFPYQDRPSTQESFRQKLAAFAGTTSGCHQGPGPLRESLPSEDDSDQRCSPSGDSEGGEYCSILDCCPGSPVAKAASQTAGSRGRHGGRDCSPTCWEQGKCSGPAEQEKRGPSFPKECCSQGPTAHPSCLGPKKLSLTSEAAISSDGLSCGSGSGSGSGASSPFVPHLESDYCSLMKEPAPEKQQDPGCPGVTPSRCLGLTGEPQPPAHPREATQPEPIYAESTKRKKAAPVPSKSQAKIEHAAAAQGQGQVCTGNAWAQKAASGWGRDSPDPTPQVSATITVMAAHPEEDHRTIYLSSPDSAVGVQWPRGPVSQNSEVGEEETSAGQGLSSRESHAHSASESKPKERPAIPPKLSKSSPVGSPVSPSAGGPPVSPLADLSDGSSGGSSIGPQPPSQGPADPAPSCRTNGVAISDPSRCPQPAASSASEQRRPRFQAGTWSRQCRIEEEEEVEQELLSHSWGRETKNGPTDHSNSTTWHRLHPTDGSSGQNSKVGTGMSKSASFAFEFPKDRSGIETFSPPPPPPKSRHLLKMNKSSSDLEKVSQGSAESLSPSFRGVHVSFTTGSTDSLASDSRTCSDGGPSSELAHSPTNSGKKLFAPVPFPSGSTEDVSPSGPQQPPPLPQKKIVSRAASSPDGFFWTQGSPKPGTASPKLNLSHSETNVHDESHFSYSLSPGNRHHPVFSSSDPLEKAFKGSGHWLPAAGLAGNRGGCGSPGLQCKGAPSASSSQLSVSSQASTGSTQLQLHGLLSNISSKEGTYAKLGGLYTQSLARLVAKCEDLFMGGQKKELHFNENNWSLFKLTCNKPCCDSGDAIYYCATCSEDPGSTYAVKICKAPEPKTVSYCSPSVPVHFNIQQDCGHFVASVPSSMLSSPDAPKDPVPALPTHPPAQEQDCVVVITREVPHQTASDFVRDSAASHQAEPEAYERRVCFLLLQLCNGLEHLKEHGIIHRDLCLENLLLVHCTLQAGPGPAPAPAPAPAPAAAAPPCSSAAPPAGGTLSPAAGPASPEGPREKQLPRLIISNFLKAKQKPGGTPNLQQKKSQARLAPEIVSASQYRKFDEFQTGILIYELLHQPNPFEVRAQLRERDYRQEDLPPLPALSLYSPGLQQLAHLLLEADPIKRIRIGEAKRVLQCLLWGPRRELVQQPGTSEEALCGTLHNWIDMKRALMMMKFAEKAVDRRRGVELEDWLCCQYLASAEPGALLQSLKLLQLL
Excerpt: (§1) The protein kinase complement of the human genome (the kinome) was described previously (Manning et al., 2002. Science 298(5600):1912-1934). Sequence accession numbers are defined by the International Protein Index (IPI) (Kersey et al., 2004. Proteomics 4(7):1985-1988).

kinases (kinome) [2] = molecular target: T2, kinases (kinome) (Homo sapiens, UniProt P07948); experiment: as above; format: binding; details: LYN (TK), IPI00298625
T2 construct: determined in kinobeads assays with mass spectrometry detection of kinases as described previously; endogenous in cells; host or cells: cell lysate
T2 sequence (P07948 whole entry): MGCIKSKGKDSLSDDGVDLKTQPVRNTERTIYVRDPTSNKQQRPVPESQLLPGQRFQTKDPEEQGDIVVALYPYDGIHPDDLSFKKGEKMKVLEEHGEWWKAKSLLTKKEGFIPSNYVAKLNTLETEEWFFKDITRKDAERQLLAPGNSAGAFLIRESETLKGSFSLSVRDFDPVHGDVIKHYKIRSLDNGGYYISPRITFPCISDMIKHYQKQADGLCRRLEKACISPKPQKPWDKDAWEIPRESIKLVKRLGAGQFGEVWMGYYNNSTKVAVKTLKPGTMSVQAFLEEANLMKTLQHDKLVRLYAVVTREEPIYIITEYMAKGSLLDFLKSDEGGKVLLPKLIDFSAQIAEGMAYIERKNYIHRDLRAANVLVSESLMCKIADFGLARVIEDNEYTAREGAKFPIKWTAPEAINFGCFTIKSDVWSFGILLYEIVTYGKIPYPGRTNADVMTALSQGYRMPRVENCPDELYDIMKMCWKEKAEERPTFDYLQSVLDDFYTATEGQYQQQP
Excerpt: as §1

kinases (kinome) [3] = molecular target: T3, kinases (kinome) (Homo sapiens, UniProt Q13554); experiment: as above; format: binding; details: CaMK2b (CAMK), IPI00221305
T3 construct: determined in kinobeads assays with mass spectrometry detection of kinases as described previously; endogenous in cells; host or cells: cell lysate
T3 sequence (Q13554 whole entry): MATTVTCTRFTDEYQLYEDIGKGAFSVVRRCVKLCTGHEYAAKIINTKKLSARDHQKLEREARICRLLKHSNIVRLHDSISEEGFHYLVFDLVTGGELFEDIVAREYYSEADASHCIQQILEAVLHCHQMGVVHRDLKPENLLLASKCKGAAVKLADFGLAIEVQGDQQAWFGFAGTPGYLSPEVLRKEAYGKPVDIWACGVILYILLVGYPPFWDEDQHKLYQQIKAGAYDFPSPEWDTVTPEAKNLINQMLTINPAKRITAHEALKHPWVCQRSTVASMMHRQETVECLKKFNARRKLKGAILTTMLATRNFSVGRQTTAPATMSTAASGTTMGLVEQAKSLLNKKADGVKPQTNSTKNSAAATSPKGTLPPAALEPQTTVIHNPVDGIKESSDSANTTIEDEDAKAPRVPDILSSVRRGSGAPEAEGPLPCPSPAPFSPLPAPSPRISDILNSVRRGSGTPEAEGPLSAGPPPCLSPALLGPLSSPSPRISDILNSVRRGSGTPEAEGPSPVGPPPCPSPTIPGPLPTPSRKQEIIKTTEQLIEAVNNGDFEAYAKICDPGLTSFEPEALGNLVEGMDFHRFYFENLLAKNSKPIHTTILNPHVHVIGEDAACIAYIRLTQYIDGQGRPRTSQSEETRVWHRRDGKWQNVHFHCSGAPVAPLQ
Excerpt: as §1

[4] = test system: Akt serine-473 phosphorylation in HEK293T/17 cells; experiment: In vitro phospho-Akt cellular assay (pAkt S473); format: cell-based; details: Homo sapiens, Table 6, 2 hours, Akt Ser473, read-out: pAKT (Phospho-Akt cell assay data, activity level)
Excerpt: In Vitro Phospho-S6 and Phospho-Akt Cellular Assay
Activation of mTOR signaling results in phosphorylation of several downstream targets. In cells, mTOR exists in two different protein complexes. The mTOR Complex-1 (mTORC1) phosphorylates and activates S6 Kinase 1 (S6K1) and S6 Kinase 2 (S6K2) (also known as p70S6K) which then phosphorylate S6 Ribosomal Protein (S6RP) (also known as RPS6). S6RP is phosphorylated on serine 235, serine 236, serine 240 and serine 244 by both pS6K1 and pS6K2. The mTOR Complex-2 (mTORC2) phosphorylates AKT on serine 473 which activates the AKT signaling pathway.
The assay measures a test compound's inhibition of S6RP serine-240/244 phosphorylation and inhibition of Akt serine-473 phosphorylation in human embryonic kidney derived HEK293T/17 cells (ATCC CRL-11268).
The HEK293T/17 cell line is maintained in DMEM media (Invitrogen catalogue number 41965-039) supplemented with 10% FCS at 37° C. in a 5% CO2 humidified incubator.
Cells are seeded in 96-well plates at 40,000 cells/well (pS6RP S240/244 assay) or 80,000 cells/well (pAkt 5473 assay) in 90 μl growth media (DMEM, 2% FCS). Plates are incubated for 1 hour in a humidified incubator to allow the cells to adhere. Cells are treated with 8 concentrations of test compounds or DMSO alone for controls (final DMSO concentration 0.1%) and incubated at 37° C. for 2 hours. Then 20 μl of 5× concentrated lysis buffer (750 mM NaCl, 100 mM Tris pH7.4, 5 mM EDTA, 5 mM EGTA, 5% Triton X-100) is added, plates are sealed and incubated for 15 minutes at 4° C. with gentle shaking. After cell lysis, 25 μl cell lysate is transferred to a MesoScale plate coated with an antibody to pS6RP Ser240/244 (MesoScale Discovery K150DGD-3) or an antibody to pAkt Ser 473 (MesoScale Discovery K151DGD-3). Plates have been blocked before by incubation with 150 μl MesoScale Discovery Blocking Solution-A for 1 hour at room temperature followed by washing with 150 μl 1× Tris wash buffer per well. After the transfer of the cell lysate to the MSD plate, the pS6RP (or pAkt) protein is captured on the coated antibody by incubation at room temperature for 1 hour with gentle shaking. After the capture step the plate is washed three times with 150 μl of 1× Tris wash buffer per well. Then 25 μl detection antibody conjugated with a Sulfo-Tag is added and incubated for 1 hour at room temperature with gentle shaking. Subsequently the antibody solution is removed and the plate is washed 3 times with 150 μl 1× Tris wash buffer per well and 150 μl Read buffer is added. The plates are analysed on a MSD 2400 Plate Reader (MesoScale Discovery). Data analysis is performed using nonlinear regression for a sigmoidal dose-response with a variable slope.

SMILES	IC50 (kinases (kinome) [1]) [µM]	IC50 (kinases (kinome) [2]) [µM]	IC50 (kinases (kinome) [3]) [µM]	IC50 [4] [µM]
C[C@H]1COCCN1c1cc(-c2ccccc2S(C)(=O)=O)nc(-c2ccc(NC(=O)NC3CC3)cc2)n1 [Example 6, (S)-1-cyclopropyl-3-(4-(4-(3-methylmorpholino)-6-(2-(methylsulfonyl)phenyl)pyrimidin-2-yl)phenyl)urea]	> 10	> 10	> 10	< 0.1
CCNC(=O)Nc1ccc(-c2cc(-c3ccccc3C#N)nc(N3CCOC[C@@H]3C)n2)cc1 [Example 8, (S)-1-(4-(6-(2-cyanophenyl)-2-(3-methylmorpholino)pyrimidin-4-yl)phenyl)-3-ethylurea]	> 10	> 10	> 10	
C[C@H]1COCCN1c1nc(-c2ccc(NC(=O)NC3CC3)cc2)cc(-c2cc(F)ccc2S(C)(=O)=O)n1 [Example 40, (S)-1-cyclopropyl-3-(4-(6-(5-fluoro-2-(methylsulfonyl)phenyl)-2-(3-methylmorpholino)pyrimidin-4-yl)phenyl)urea]	> 10	> 10	> 10	< 0.1
C[C@H]1COCCN1c1cc(-c2ccccn2)nc(-c2ccc(NC(=O)NCCO)cc2)n1 [Example 43, (S)-1-(2-hydroxyethyl)-3-(4-(4-(3-methylmorpholino)-6-(pyridin-2-yl)pyrimidin-2-yl)phenyl)urea]	> 10	> 10	> 10	< 0.1
C[C@H]1COCCN1c1nc(-c2ccc(NC(=O)NC3CC3)cc2)cc(-c2cccnc2S(C)(=O)=O)n1 [Example 46, (S)-1-cyclopropyl-3-(4-(2-(3-methylmorpholino)-6-(2-(methylsulfonyl)pyridin-3-yl)pyrimidin-4-yl)phenyl)urea]	> 10	> 10	> 10	< 0.1
C[C@H]1COCCN1c1nc(-c2ccc(NC(=O)N[C@H]3CCC[C@@H]3O)cc2)cc(-c2cc(F)ccc2S(C)(=O)=O)n1 [Example 76, 1-(4-(6-(5-fluoro-2-(methylsulfonyl)phenyl)-2-((S)-3-methylmorpholino)pyrimidin-4-yl)phenyl)-3-((1S,2S)-2-hydroxycyclopentyl)urea]	> 10	> 10	> 10	< 0.1
